Results as given in ChEMBL document CHEMBL1201862, “PubChem BioAssay data set” (2004).
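Test compounds were applied to cells in 96-well plates for 48 hours at 5 doses. The concentration for 50% growth inhibition is given as GI50.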 Active and inactive are the calls of the source. Rule as the data show it: active = GI50 up to about 1.1 µM and inactive = higher.

Key:
Assay in all cases: growth of human tumour cells (NCI), 48 h
786-0 = tested on: 786-0
ACHN = tested on: ACHN
CCRF-CEM = tested on: CCRF-CEM
HCC 2998 = tested on: HCC 2998
HL-60 = tested on: HL-60
IGROV-1 = tested on: IGROV-1
KM12 = tested on: KM12
MDA-MB-435 = tested on: MDA-MB-435
MDA-N = tested on: MDA-N
NCI-H460 = tested on: NCI-H460
OVCAR-3 = tested on: OVCAR-3
OVCAR-5 = tested on: OVCAR-5
PC-3 = tested on: PC-3
SF-539 = tested on: SF-539
SK-MEL-28 = tested on: SK-MEL-28
SK-MEL-5 = tested on: SK-MEL-5
SNB-19 = tested on: SNB-19
UACC-62 = tested on: UACC-62
NCI-H226 = tested on: NCI-H226
SNB-75 = tested on: SNB-75

Measured: GI50

O=C1/C(=C\c2ccc(Cl)cc2)N=C(c2ccccc2)N1n1c(=O)cn[nH]c1=S
inactive: 786-0 18.4 µM | ACHN > 100 µM | CCRF-CEM 2.56 µM | HCC 2998 84.3 µM | HL-60 18.2 µM | IGROV-1 18.5 µM | KM12 > 100 µM | MDA-MB-435 30.5 µM | MDA-N 52.6 µM | NCI-H460 > 100 µM | OVCAR-3 27.4 µM | OVCAR-5 > 100 µM | PC-3 39.7 µM | SF-539 > 100 µM | SK-MEL-28 > 100 µM | SK-MEL-5 21.7 µM | SNB-19 54.3 µM | UACC-62 33.7 µM

COC(=O)C1=C(C(=O)OC)C(C(=O)c2ccc(Br)cc2)N2N=C(c3ccc(Cl)cc3)C=CC12 (stereo not drawn)
inactive: 786-0 > 100 µM | ACHN > 100 µM | CCRF-CEM > 100 µM | HCC 2998 > 100 µM | HL-60 > 100 µM | IGROV-1 > 100 µM | KM12 14.5 µM | MDA-MB-435 > 100 µM | MDA-N > 100 µM | NCI-H226 > 100 µM | NCI-H460 > 100 µM | OVCAR-3 > 100 µM | OVCAR-5 > 100 µM | PC-3 80.4 µM | SK-MEL-28 > 100 µM | SK-MEL-5 > 100 µM | SNB-19 > 100 µM | SNB-75 35.2 µM | UACC-62 25.2 µM

N#CC1(O)CCCCCCCCCCC1
inactive: 786-0 > 100 µM | ACHN > 100 µM | CCRF-CEM > 100 µM | HCC 2998 > 100 µM | HL-60 > 100 µM | IGROV-1 > 100 µM | KM12 > 100 µM | MDA-MB-435 > 100 µM | MDA-N > 100 µM | NCI-H226 > 100 µM | NCI-H460 > 100 µM | OVCAR-3 > 100 µM | OVCAR-5 > 100 µM | PC-3 > 100 µM | SF-539 > 100 µM | SK-MEL-28 > 100 µM | SK-MEL-5 > 100 µM | SNB-19 > 100 µM | UACC-62 > 100 µM

N=C(N)/N=C(\N)Nc1cnccn1
inactive: 786-0 > 100 µM | ACHN > 100 µM | CCRF-CEM > 100 µM | HCC 2998 > 100 µM | HL-60 > 100 µM | IGROV-1 > 100 µM | KM12 > 100 µM | MDA-MB-435 > 100 µM | MDA-N > 100 µM | NCI-H226 > 100 µM | OVCAR-3 > 100 µM | PC-3 > 100 µM | SF-539 > 100 µM | SK-MEL-28 > 100 µM | SK-MEL-5 > 100 µM | SNB-19 > 100 µM | SNB-75 > 100 µM | UACC-62 > 100 µM

O=C1Nc2ccccc2C1Cc1ccc([N+](=O)[O-])cc1 (stereo not drawn)
inactive: 786-0 > 100 µM | ACHN > 100 µM | CCRF-CEM 20.1 µM | HCC 2998 > 100 µM | HL-60 5.57 µM | IGROV-1 21.6 µM | KM12 36.2 µM | MDA-MB-435 > 100 µM | MDA-N 71.4 µM | NCI-H226 > 100 µM | NCI-H460 > 100 µM | OVCAR-3 > 100 µM | OVCAR-5 > 100 µM | PC-3 74 µM | SK-MEL-28 > 100 µM | SK-MEL-5 57.5 µM | SNB-19 > 100 µM | SNB-75 > 100 µM | UACC-62 > 100 µM

Cc1cc2c(cc1Cl)SC(c1ccccc1)C(=O)NS2(=O)=O (stereo not drawn)
inactive: 786-0 31.6 µM | ACHN 36.7 µM | CCRF-CEM 47.4 µM | HCC 2998 30.3 µM | HL-60 29.3 µM | IGROV-1 40.8 µM | KM12 30.3 µM | MDA-MB-435 35.1 µM | MDA-N 34.1 µM | NCI-H226 36.3 µM | NCI-H460 30.3 µM | OVCAR-3 21.6 µM | OVCAR-5 45.9 µM | PC-3 26.4 µM | SF-539 26.7 µM | SK-MEL-28 34.8 µM | SK-MEL-5 21.6 µM | SNB-75 19.7 µM

O=C(O)c1ccccc1CC(Cc1ccc2c(c1)CCC2)C(=O)O (stereo not drawn)
inactive: 786-0 > 100 µM | ACHN > 100 µM | CCRF-CEM > 100 µM | HCC 2998 > 100 µM | HL-60 > 100 µM | IGROV-1 > 100 µM | KM12 > 100 µM | MDA-MB-435 > 100 µM | MDA-N > 100 µM | NCI-H226 > 100 µM | NCI-H460 > 100 µM | OVCAR-3 > 100 µM | OVCAR-5 > 100 µM | PC-3 > 100 µM | SF-539 > 100 µM | SK-MEL-28 > 100 µM | SK-MEL-5 > 100 µM | SNB-19 > 100 µM | SNB-75 > 100 µM

Brc1ccc(-c2cc(-c3ccc4c(c3)OCO4)c(-c3cccs3)n2Cc2ccccc2)cc1
inactive: 786-0 > 100 µM | ACHN > 100 µM | CCRF-CEM > 100 µM | HCC 2998 > 100 µM | HL-60 > 100 µM | IGROV-1 > 100 µM | KM12 > 100 µM | MDA-MB-435 > 100 µM | MDA-N > 100 µM | NCI-H460 > 100 µM | PC-3 > 100 µM | SF-539 > 100 µM | SK-MEL-28 > 100 µM | SK-MEL-5 > 100 µM | SNB-19 > 100 µM | SNB-75 > 100 µM | UACC-62 > 100 µM

Cc1ccc(SC(=O)N2C(=S)N=C(NC3CCCCC3)C23CCCCC3)cc1
inactive: 786-0 > 100 µM | ACHN 80 µM | CCRF-CEM 29 µM | HCC 2998 > 100 µM | HL-60 38.6 µM | IGROV-1 36.1 µM | KM12 69.7 µM | MDA-MB-435 > 100 µM | MDA-N > 100 µM | NCI-H460 81.3 µM | OVCAR-3 50.6 µM | OVCAR-5 > 100 µM | PC-3 44.6 µM | SF-539 > 100 µM | SK-MEL-28 > 100 µM | SK-MEL-5 > 100 µM | SNB-19 > 100 µM | SNB-75 57.9 µM | UACC-62 > 100 µM

O=C(O)C1C(C(=O)Nc2ccc3c(c2)Cc2ccccc2-3)C2(Cl)C(Cl)=C(Cl)C1(Cl)C2(Cl)Cl (stereo not drawn)
inactive: 786-0 30.3 µM | ACHN 30.3 µM | CCRF-CEM 18.7 µM | HCC 2998 20.6 µM | HL-60 26.6 µM | IGROV-1 20 µM | KM12 18.7 µM | MDA-MB-435 29.1 µM | MDA-N 35.6 µM | NCI-H226 29 µM | OVCAR-3 17.6 µM | OVCAR-5 20.4 µM | PC-3 15.6 µM | SF-539 13.2 µM | SK-MEL-28 21.5 µM | SK-MEL-5 14.2 µM | SNB-19 36 µM | SNB-75 26.2 µM | UACC-62 16.1 µM

CC1(c2nc3ccccc3[nH]2)CCC(C(=O)O)C(C)(C)O1 (stereo not drawn)
inactive: 786-0 > 100 µM | ACHN > 100 µM | CCRF-CEM > 100 µM | HCC 2998 > 100 µM | HL-60 > 100 µM | IGROV-1 > 100 µM | KM12 26.5 µM | MDA-MB-435 > 100 µM | MDA-N > 100 µM | NCI-H226 > 100 µM | OVCAR-3 > 100 µM | OVCAR-5 > 100 µM | PC-3 > 100 µM | SF-539 > 100 µM | SK-MEL-28 > 100 µM | SK-MEL-5 > 100 µM | SNB-19 > 100 µM | SNB-75 39.8 µM | UACC-62 > 100 µM

SC[C@@H]1COC[C@H](CS)S1
inactive: 786-0 > 100 µM | CCRF-CEM > 100 µM | HCC 2998 > 100 µM | HL-60 > 100 µM | IGROV-1 > 100 µM | KM12 > 100 µM | MDA-MB-435 > 100 µM | MDA-N > 100 µM | NCI-H460 > 100 µM | OVCAR-3 > 100 µM | OVCAR-5 > 100 µM | PC-3 > 100 µM | SF-539 > 100 µM | SK-MEL-28 > 100 µM | SK-MEL-5 > 100 µM | SNB-19 > 100 µM | SNB-75 58.9 µM | UACC-62 > 100 µM

CC(C)(C)C1CCC2c3c([nH]c4ccccc34)C3C(=O)N(c4cc(Br)cc(Br)c4)C(=O)C3C2C1 (stereo not drawn)
inactive: 786-0 6.95 µM | ACHN 20 µM | CCRF-CEM 5.79 µM | HCC 2998 5.05 µM | HL-60 2.55 µM | IGROV-1 70.3 µM | KM12 12.6 µM | MDA-MB-435 19.7 µM | MDA-N 31.9 µM | NCI-H226 21.9 µM | NCI-H460 6.43 µM | OVCAR-3 > 10 µM | OVCAR-5 31.6 µM | PC-3 9.95 µM | SF-539 16.7 µM | SK-MEL-28 13.2 µM | SK-MEL-5 24.2 µM | UACC-62 25.1 µM

Cc1ccc(N2C(N)=C(C#N)C(C#N)(C#N)C2c2ccccc2)cc1 (stereo not drawn)
inactive: 786-0 14.2 µM | ACHN 14.2 µM | CCRF-CEM 3 µM | HCC 2998 13 µM | HL-60 2.75 µM | IGROV-1 6.67 µM | KM12 17.2 µM | MDA-MB-435 4.03 µM | MDA-N 3.08 µM | NCI-H226 19.5 µM | OVCAR-3 13.7 µM | OVCAR-5 15.5 µM | PC-3 18.8 µM | SF-539 14.2 µM | SK-MEL-28 10.1 µM | SK-MEL-5 8.63 µM | SNB-19 17.5 µM | SNB-75 13.2 µM | UACC-62 11.4 µM

O=C(O)[C@@H]1CCCN1 [PROLINE]
inactive: 786-0 > 100 µM | ACHN > 100 µM | HCC 2998 > 100 µM | HL-60 > 100 µM | IGROV-1 > 100 µM | KM12 > 100 µM | MDA-MB-435 > 100 µM | MDA-N > 100 µM | NCI-H226 > 100 µM | NCI-H460 > 100 µM | OVCAR-3 > 100 µM | OVCAR-5 > 100 µM | PC-3 > 100 µM | SF-539 > 100 µM | SK-MEL-28 > 100 µM | SK-MEL-5 > 100 µM | SNB-19 > 100 µM | SNB-75 57.4 µM | UACC-62 > 100 µM
